In assay [1] the test system is EMRSA-17. The assay can be described thus: Reversal of Multi-Drug Resistance (MIC/FIC of antibiotics combined with compound 1). The following applies: Staphylococcus aureus, Compound 1 alone, read-out: MIC (b). It is filed as cell-based, Staphylococcus aureus. As to the method:
(§1) Assay Protocol: Protocol of Chung et al, (2001), with slight modifications, was followed. 5×10 MDR S. aureus cells were treated with 20 μg/mL of test compounds and incubated for 20 hours. Control cells were not exposed to any test compound and antibiotic. In 96-well plate, increasing concentration of antibiotics, along with the fixed concentration of test compounds were added. Inoculum of 5×10^5 cells was applied to all wells. The presence or absence of growth in all combination wells were noted visually and by using the dye Alamar blue.
(§2) Fractional inhibitory concentrations were calculated by the above cited formulae. • FIC of Antibiotic a (FICa)=MIC of Antibiotic a in combination/MIC of antibiotic a alone • FIC of Compound b (FICb)=MIC of Compound b in combination/MIC of compound b alone
(§3) The sum of Fractional Inhibitory Concentration (FICs) index of: (FICa)+(FICb)=(FICs)

The subject of assay [2] is Clinical Isolates. The assay is described as above. The following applies: Staphylococcus aureus, Compound 1 alone, read-out: MIC (b). It is filed as cell-based, Staphylococcus aureus. As to the method: as §1, §2, §3
Assay [3] relates to EMRSA-17. In words: Lucigenin CL assay of Reactive Oxygen Species (O2-) production. It is filed as cell-based, Staphylococcus aureus. To be noted: different concentrations, RLU. Here is the method: (§4) Assay Protocol: Protocol of Albesa et al (2002) was followed with slight modifications. 5×10^5 Cells were treated with the different concentrations of test compounds. Cells with compounds were incubated with leueigenin and filtered phosphate buffer saline. DMSO was added to the each well at the time of RLU determination to trigger the reaction. […] Positive control contains DMSO, but not the test compound. Determination by chemiluminescence (CL) was performed at room temperature by luminometer. The light emission results were measured in relative light unit (RLU).

Assay [4] relates to Clinical Isolates. The assay is described as above. To be noted: different concentrations, RLU. It is filed as cell-based, Staphylococcus aureus. As to the method:
as §4

For assay [5], the system named is MDR Efflux Pumps of EMRSA-17. In words: EtBr accumulation/efflux flow cytometry assay. The format is cell-based, Staphylococcus aureus. The following applies: compound 1 in combination with antibiotics, 3 hrs, FL2. As to the method:
(§5) Assay Protocol: Protocol of Kalle et al, (2009) was employed with some modifications. Control cells were not exposed with any test compound or antibiotic. Combination of test compound and antibiotics were incubated for 3 hrs in test cells. Ethiduim bromide (EtBr) was added in to the Eppendorff, containing the combination of both drugs and compound. Cells with the drugs were also incubated and stained with EtBr. Control and treated samples were centrifuged for 3 min at 13,000 rpm. Supernatant was […] and the pallet was washed with PBS. Positive control contains ethidium bromide, while negative control was EtBr free. Flow cytometric analysis was carried out done by using the FL2 channel.
(§6) Flow cytometry data acquisition: The flow cytometric assay was performed. A total of 50,000 cells were counted by using Cell Quest software (BD) for data acquisition and analysis. EtBr was excited at 488 nm and the fluorescence detected through a 585 nm filter (FL-2 channel).

Assay [6] has as its system MDR Efflux Pumps of clinical isolates. In words: EtBr accumulation/efflux flow cytometry assay. The following applies: compound 1 in combination with antibiotics, 3 hrs, FL2. It is filed as cell-based, Staphylococcus aureus. Here is the method: as §5, §6
Assay [7] has as its system EMRSA-17. In words: Membrane potential and integrity, DiBAC4(3) flow cytometry. The format is cell-based, Staphylococcus aureus. To be noted: 20 μg/mL, 20 hrs, flow cytometry FL1. As to the method:
(§7) Compound Treatment: 5×10^5 MDR S. aureus cells were treated with 20 μg/mL of test compounds and incubated for 20 hours, while the control cells were incubated without test compound.
(§8) Cell Staining: Staining procedure of Jepras et al. (1997) was adapted with slight modifications. Stock solutions (1 mg/mL) for the membrane potential probe DiBAC4(3) were made in absolute ethanol and stored at −20 ° C. […] Samples (1 mL) of exponentially growing S. aureus were taken from broth cultures. Samples were centrifuged at 11,000 rpm for 2 min and the supernatant was discarded. Cell pellets were resuspended in 4 mL of filtered phosphate-buffered saline (PBS). Fluorogenic substrates DiBAC4(3) were added to the cell suspensions to obtain a final concentration of 10 μg/mL. The suspensions were then incubated at 37° C. for 30 min. Cells were washed by centrifugation in the PBS buffer and then analyzed by flow cytometry.
(§9) Flow cytometry data acquisition: The flow cytometric assay was performed on a Becton Dickinson FACSCaliber™ flow cytometer. A total of 50,000 cells were counted by using Cell Quest software (BD) for data acquisition and analysis. The emission maximum of DiBAC4(3) was at 516 nm and its green fluorescence was detected in the channel FL1 (Veal et al., 2000).

The subject of a further assay is clinical isolate. The description is as above. It is filed as cell-based, Staphylococcus aureus. To be noted: 20 μg/mL, 20 hrs, flow cytometry FL1. Here is the method:
as §7, §8, §9

The test system of assay [8] is EMRSA-17. The assay can be described thus: High throughput screening assay (MABA) against MDR S. aureus. The following applies: Staphylococcus aureus, 20 μg/mL, 20 hours, Alamar Blue. The format is cell-based. As to the method: (§10) High throughput screening assay (MABA) against MDR S. aureus:
(§11) Inocula Preparation: Isolated colonies of S. aureus were picked and inoculated into Muller Hinton broth and incubated at 37° C. for 20 hours. After 20 hours, the turbidity was checked and adjusted to 0.5 McFarland standards.
(§12) Assay Protocol: Assays were performed according to method reported by Sarkar et al. (2007) with slight modifications. Flat bottom, polystyrene, non-tissue culture treated, sterile 96-well micro titer plates were used with proper labeling. Stock solutions of test compounds 1 and 2 were prepared in DMSO with the concentration of 1 mg/mL. 4 μL from stock solutions were distributed in each well, except the control wells of the plate. Two fold serial dilutions using sterile broth were made with the final volume of […], in each well. The bacterial suspensions (cone 5×10^5) were then added in each wells. The plate was sealed by parafilm and incubated at 37° C. for 20 hours. The plates were prepared in triplicate. Next day, 10% Alamar Blue Dye was added to the culture and kept on shaking incubator at 37° C. for 3 to 4 hours. The color change was then assessed visually, qualitatively and quantitatively by recording absorbance at 570 and 600 nm by a spectrophotometer. The percentage inhibition of compound 1 and 2 against EMRSA-16, and 17, MRSA-252 and clinical isolate by MABA assays are given in Table 1.
(§13) Percentage reduction and inhibition of Alamar blue dye was calculated by using the following formula.
(§14) Here control wells contain only media plus Alamar Blue, while the test wells contains both Alamar Blue with the test compounds.

A further assay relates to MRSA-252. The description is as above. It is filed as cell-based. The following applies: Staphylococcus aureus, 20 μg/mL, 20 hours, Alamar Blue. Here is the method: as §10, §11, §12, §13, §14
Another assay deals with EMRSA-16. The description is as above. It is filed as cell-based. To be noted: Staphylococcus aureus, 20 μg/mL, 20 hours, Alamar Blue. As to the method: as §10, §11, §12, §13, §14
Assay [9] concerns Clinical Isolates. Described as above. It is filed as cell-based. The following applies: Staphylococcus aureus, 20 μg/mL, 20 hours, Alamar Blue. As to the method:
as §10, §11, §12, §13, §14

SMILES strings stand for the structures.

We go through 1 compound from US8889733B2, “Artonin I to treat resistant infectious Staphylococcus aureus” (priority 2013, dated 2014).

Turning to `CC(C)=CCc1c(O)ccc(C(=O)[C@@H]2C(c3ccc(O)cc3O)CC(C)=C[C@@H]2c2c(O)cc3oc(-c4ccc(O)cc4O)cc(=O)c3c2O)c1O` (stereo partly drawn) [Compound 1, artonin I], the MIC with EMRSA-17 [1] and in the assay on Clinical Isolates [2] was 25 µg/mL throughout. The “production of O2- (ROS), lucigenin chemiluminescence” value with EMRSA-17 [3] and in the assay with Clinical Isolates [4] was “more production of O2^− was observed” each time. Also, the “efflux activity, EtBr accumulation” value in assay [5] and in assay [6] was “decrease in the efflux activity was observed” each time. Also, the “membrane potential and integrity, DiBAC4(3) fluorescence” value with EMRSA-17 [7] is “majority of population was shifted in a rapid regular pattern due to the change in membrane potential”; with clinical isolate, “bulky peaks steadily moved towards the area of increasing fluorescence”. For the same compound, the inhibition at 20 µg/mL with EMRSA-17 [8] is 91.1%; with MRSA-252, 69.4%; in the assay with EMRSA-16, 88.7%; with Clinical Isolates [9] it was 88.9%.
